Reference: BindingDB's records for doi:10.7270/Q2HM57BR (D3R/Abbott, 2015)

Molecular target: T1, UDP-3-O-acyl-N-acetylglucosamine deacetylase (Pseudomonas aeruginosa (strain ATCC 15692 / DSM 22644 / CIP 104116 / JCM 14847 / LMG 12228 / 1C / PRS 101 / PAO1), UniProt P47205)
T1 sequence (P47205 whole entry): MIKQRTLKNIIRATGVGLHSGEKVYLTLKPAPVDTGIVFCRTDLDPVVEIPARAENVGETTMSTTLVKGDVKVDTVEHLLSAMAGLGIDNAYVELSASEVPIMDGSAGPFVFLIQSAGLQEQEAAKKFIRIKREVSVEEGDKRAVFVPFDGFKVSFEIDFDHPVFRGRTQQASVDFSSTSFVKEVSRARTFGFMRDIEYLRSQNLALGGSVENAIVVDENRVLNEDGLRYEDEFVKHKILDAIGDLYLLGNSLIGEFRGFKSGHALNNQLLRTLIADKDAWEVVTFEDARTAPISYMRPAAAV
Assay: Thermofluor_Method1

Compound	Kd [µM]
CC1(CNC(=O)c2ccc(-c3ccc(Br)cc3)cc2)NC(=O)NC1=O (stereo unspecified) [CS23]	> 100
C[C@@H](O)[C@H](NC(=O)c1ccc(C#Cc2ccccc2)cc1)C(=O)NO [CS259]	0.0201
C[C@@H](O)[C@H](NC(=O)c1ccc(-c2ccc(Br)cc2)cc1)C(=O)NO [CS258]	0.0332
C[C@@H](O)[C@H](NC(=O)c1ccc(C#CC#Cc2ccccc2)cc1)C(=O)NO [CS257]	0.00835
O=C(NO)[C@H]1COC(c2ccc(OC(F)(F)F)c(Cl)c2)=N1 [CS270]	3.8
C[C@@H](O)[C@H](NC(=O)c1ccc(-c2ccc(Br)cc2)cc1)C(=O)NCC1(C)NC(=O)NC1=O (stereo partly specified) [CS256]	> 100
CN(C)c1ccc(-c2nc(C(=O)NO)cs2)cc1 [CS278]	28.2
CC1(CNC(=O)[C@H](CN)NC(=O)c2ccc(-c3ccccc3)cc2)NC(=O)NC1=O (stereo partly specified) [CS264]	> 100
O=C(NO)[C@H]1COC(c2ccc(OCc3cccc(F)c3)c(OC(F)(F)F)c2)=N1 [CS269]	> 100
C[C@@H](O)[C@H](NC(=O)c1ccc(-c2ccccc2)cc1)C(=O)NO [CS263]	0.0745
CC1(CNC(=O)[C@H](CN)NC(=O)c2ccc(C#CC#Cc3ccccc3)cc2)NC(=O)NC1=O (stereo partly specified) [CS265]	> 100
C[C@@H](O)[C@H](NC(=O)c1ccc(C#CC#Cc2ccccc2)cc1)C(=O)NCC1(C)NC(=O)NC1=O (stereo partly specified) [CS255]	> 100
NC[C@H](NC(=O)c1ccc(C#CC#Cc2ccccc2)cc1)C(=O)NO [CS252]	0.0586
O=C(NO)[C@H]1COC(c2ccc(F)cc2)=N1 [CS279]	11.1
CC1(CNC(=O)[C@H](CN)NC(=O)c2ccc(-c3ccc(Br)cc3)cc2)NC(=O)NC1=O (stereo partly specified) [CS267]	> 100
CC1(CNC(=O)c2ccc(C#CC#Cc3ccccc3)cc2)NC(=O)NC1=O (stereo unspecified) [CS243]	63.9

Compound	Kd [µM]
C[C@@H](O)[C@H](NC(=O)c1ccc(-c2ccccc2)cc1)C(=O)NCC1(C)NC(=O)NC1=O (stereo partly specified) [CS253]	> 100
CN(C)c1ccc(C2=N[C@@H](C(=O)NO)CO2)cc1 [CS273]	> 100
CC1(CNC(=O)c2ccc(-c3ccccc3)cc2)NC(=O)NC1=O (stereo unspecified) [CS21]	> 100
O=C(NO)C1=C[SiH2]C(c2ccc(F)cc2)=N1 (stereo unspecified) [CS276]	28.5
O=C(NO)[C@H]1COC(c2ccc([N+](=O)[O-])cc2)=N1 [CS268]	7.25
NC[C@H](NC(=O)c1ccc(-c2ccc(Br)cc2)cc1)C(=O)NO [CS250]	0.19
CC1(CNC(=O)c2ccc(C#Cc3ccccc3)cc2)NC(=O)NC1=O (stereo unspecified) [CS22]	93.4
O=C(NO)[C@H]1COC(c2cc3cc(F)ccc3[nH]2)=N1 [CS272]	1.5
NC[C@H](NC(=O)c1ccc(-c2ccccc2)cc1)C(=O)NO [CS249]	0.393
O=C(NO)[C@H]1COC(c2ccc(F)c(C(F)(F)F)c2)=N1 [CS271]	1.03
CCCc1ccc(-c2ccc(C3=N[C@@H](C(=O)NO)CO3)cc2)cc1 [CS274]	15.6
C[C@@H](O)[C@H](NC(=O)c1ccc(C#Cc2ccccc2)cc1)C(=O)NCC1(C)NC(=O)NC1=O (stereo partly specified) [CS254]	> 100
O=C(NO)c1csc(-c2ccc(OC(F)(F)F)c(Cl)c2)n1 [CS275]	21.5
O=C(NO)c1csc(-c2ccc(F)c(C(F)(F)F)c2)n1 [CS277]	2.91
CC1(CNC(=O)[C@H](CN)NC(=O)c2ccc(C#Cc3ccccc3)cc2)NC(=O)NC1=O (stereo partly specified) [CS266]	> 100
